Structures can show the parent of a compound that is named as a salt.

Usually melting point stands for the temperature, or range, at which the solid turns liquid.

The first data set addresses T1, hCRF1 (Homo sapiens, UniProt P34998).
T1 construct: endogenous in cells; host or cells: Human Y-79 retinoblastoma cells
T1 sequence (P34998 24-415): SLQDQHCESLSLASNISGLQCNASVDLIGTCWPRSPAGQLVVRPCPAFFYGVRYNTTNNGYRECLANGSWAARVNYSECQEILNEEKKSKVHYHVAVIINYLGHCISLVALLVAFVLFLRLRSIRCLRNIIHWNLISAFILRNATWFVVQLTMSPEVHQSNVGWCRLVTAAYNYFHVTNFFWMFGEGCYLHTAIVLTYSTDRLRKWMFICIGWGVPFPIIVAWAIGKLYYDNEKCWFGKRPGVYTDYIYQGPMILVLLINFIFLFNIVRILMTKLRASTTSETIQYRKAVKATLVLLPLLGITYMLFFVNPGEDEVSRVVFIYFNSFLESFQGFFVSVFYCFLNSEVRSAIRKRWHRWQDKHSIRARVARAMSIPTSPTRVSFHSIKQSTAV
In words: Intracellular cAMP stimulation assay (CRF1 functional assay). The data set is classed as cell-based. Particulars: inhibition of hCRF (30 nM)-stimulated cAMP accumulation in human Y-79 retinoblastoma cells, read-out: hCRF1 pIC50 (converted). The protocol:
Intracellular cAMP Stimulation Assay
Human Y-79 retinoblastoma cells are grown in RPMI 1640 medium with 15% FBS. Measures of cAMP accumulation are performed by using NEN Adenylyl Cyclase FlashPlate kit (SMP004). The cells are separated from culture medium, washed twice with PBS (150×g, 8 min), resuspended (2E+6 cells/ml) in Stimulation Buffer (provided in the kit), and then added to 96-well FlashPlates, (50,000 cells per well). Various concentrations of test compounds are incubated with the cells for 20 min prior to the addition of hCRF (30 nM). The total assay volume is 100 μl. The assay is terminated after 20 min after addition of the hCRF by addition of Detection Buffer and [^125I]cAMP. After 2 hr at room temperature the mixtures are aspirated and the bound radioactivity is measured with a Packard TopCount. The potency (IC50 values) of test compounds in inhibiting the hCRF-stimulated accumulation of cAMP is determined by nonlinear regression analyses with interactive curve-fitting procedures.
The compounds of the present invention were active in receptor binding and functional assays.
On the technique in general: Changes in cAMP serve as a functional read-out for many G protein-coupled receptors.
In the case of `CCC=C(CCC)c1c2cccc(-c3ccc(Cl)cc3Cl)c2nn1C` [Ia, 7-(2,4-Dichloro-phenyl)-2-methyl-3-(1-propyl-but-1-enyl)-2H-indazole hydrochloride], the IC50 is 63.1 nM. As for `CCC=C(CCC)c1c2cccc(-c3c(C)cc(C)cc3C)c2nn1C.Cl` [Ib, 2-Methyl-3-(1-propyl-but-1-enyl)-7-(2,4,6-trimethyl-phenyl)-2H-indazole hydrochloride], the IC50 is 50.1 nM. Consider `CCCN(CCC)c1c2cccc(-c3c(C)cc(C)cc3C)c2nn1C` [Ic, [2-Methyl-7-(2,4,6-trimethyl-phenyl)-2H-indazol-3-yl]-dipropyl-amine], for which the IC50 is 79.4 nM. On to `CCCN(Cc1cccs1)c1c2cccc(-c3c(C)cc(C)cc3C)c2nn1C` [Io, [2-Methyl-7-(2,4,6-trimethyl-phenyl)-2H-indazol-3-yl]-propyl-thiophen-2-ylmethyl-amine trifluoro-acetic acid salt], for which the IC50 was 79.4 nM. Consider `CCCN(CC1CC1)c1c2cccc(-c3c(C)cc(C)cc3C)c2nn1C` [Ip, Cyclopropylmethyl-[2-methyl-7-(2,4,6-trimethyl-phenyl)-2H-indazol-3-yl]-propyl-amine trifluoroacetic acid salt], for which the IC50 is 50.1 nM.

Tested on in the next data set: not given
Assay: not given
Settings: not given
Regarding `CCN(CCOC)c1c2cccc(-c3c(C)cc(C)cc3C)c2nn1C.Cl`, the melting point lay within 142 to 146 °C. `CCCN(CCC)c1c2cccc(-c3ccc(OC)cc3C)c2nn1C.Cl`: the melting point lay within 60 to 70 °C. For the compound `CCCN(Cc1c2cccc(-c3c(C)cc(C)cc3C)c2nn1C)CC1CC1.Cl`, the melting point was in the range of 125.8 to 133.5 °C. `CCCN(CC1CC1)c1c2cccc(-c3ccc(Cl)cc3Cl)c2nn1C.Cl` came in with a melting point of 137 to 139 °C. As for `CCCN(CCC)c1c2cccc(-c3ccc(OC)cc3OC)c2nn1C.Cl`, the melting point was 62 to 64.3 °C. As for `CC/C=C(\CCC)c1c2cccc(-c3ccc(OC)nc3C)c2nn1C.Cl`, the melting point is 84.7 to 89.4 °C.

Regarding `CCC=C(CCC)c1c2cccc(-c3ccc(Cl)cc3Cl)c2nn1C` (as salt: hydrochloride) [Ia, 7-(2,4-Dichloro-phenyl)-2-methyl-3-(1-propyl-but-1-enyl)-2H-indazole hydrochloride], the melting point was in the range of 147 to 152 °C. As for `CCCN(CCC)c1c2cccc(-c3c(C)cc(C)cc3C)c2nn1C` (as salt: hydrochloride) [Ic, [2-Methyl-7-(2,4,6-trimethyl-phenyl)-2H-indazol-3-yl]-dipropyl-amine], the melting point was 154 to 158 °C. Take `CCCN(CCOC)c1c2cccc(-c3c(C)cc(C)cc3C)c2nn1C` (as salt: hydrochloride) [Ie, (2-Methoxy-ethyl)-[2-methyl-7-(2,4,6-trimethyl-phenyl)-2H-indazol-3-yl]-propyl-amine]: the melting point lay in the range of 86 to 121 °C. On the same count and under the same terms, the value for `COCCN(CCOC)c1c2cccc(-c3c(C)cc(C)cc3C)c2nn1C` (as salt: hydrochloride) [If, Bis-(2-methoxy-ethyl)-[2-methyl-7-(2,4,6-trimethyl-phenyl)-2H-indazol-3-yl]-amine] was 140 to 142 °C.

For the compound `CCCN(CCC)c1c2cccc(-c3ccc(Cl)cc3Cl)c2nn1C` (as salt: hydrochloride) [[7-(2,4-Dichloro-phenyl)-2-methyl-2H-indazol-3-yl]-dipropyl-amine], the melting point is 153 to 157 °C. `Cn1nc2c(-c3ccc(Cl)cc3Cl)cccc2c1C(=O)N1CCOCC1` [Iae, [7-(2,4-Dichloro-phenyl)-2-methyl-2H-indazol-3-yl]-morpholin-4-yl-methanone] displayed a melting point of 197 to 200.8 °C. With `Cn1nc2c(-c3ccc(Cl)cc3Cl)cccc2c1CN1CCOCC1` [Iag, 7-(2,4-Dichloro-phenyl)-2-methyl-3-morpholin-4-ylmethyl-2H-indazole], the melting point was 152.3 to 154.8 °C. On to `CCC=C(CCC)c1c2cccc(-c3c(C)cc(C)cc3C)c2nn1C.Cl` [Ib, 2-Methyl-3-(1-propyl-but-1-enyl)-7-(2,4,6-trimethyl-phenyl)-2H-indazole hydrochloride], for which the melting point lay within 132 to 135 °C. The compound `CCCN(CC1CC1)C(=O)c1c2cccc(-c3c(C)cc(C)cc3C)c2nn1C` [Im, 2-Methyl-7-(2,4,6-trimethyl-phenyl)-2H-indazole-3-carboxylic acid cyclopropylmethyl-propyl-amide] returned a melting point of 112.5 to 113.8 °C.

For the origin of these results see patent US7214699B2, “Indazole derivatives as CRF antagonists” (Roche Palo Alto LLC, priority 2002, dated 2007).
